Assay results from paper PMC7770263 (The Journal of International Medical Research, 2020).

What was measured:
[1] = Pharmacokinetic tests in rats; format: in vivo, Sprague–Dawley rats; details: for absorption in vivo (in words) / elimination rate (in words): intravenous injection of the compound preparation
[2] = Stability test of QC samples in rat plasma; format: in vitro ADME; details: for Extracted sample stability, Accuracy / Extracted sample stability, Concentration: extracted rat plasma samples; for Extracted sample stability, Accuracy / Long-term stability, Accuracy: relative error; for stability values (short- and long-term stability) / Short-term stability, Concentration / Long-term stability, Accuracy: rat plasma; for stability values (short- and long-term stability): all QC concentrations, room temperature 24 hours and −20°C 30 days; for Short-term stability, Concentration: room temperature for 24 hours; for Long-term stability, Accuracy: −20°C for 30 days
[3] = male, Sprague-Dawley, rat, plasma, iv, 144 mg/kg
[4] = rat, intravenous injection, 144 mg/kg, mean ± standard deviation
[5] = nominal concentration 300 ng/mL
[6] = nominal concentration 2400 ng/mL
[7] = rat plasma, intravenous injection of ticarcillin disodium and clavulanate, 144 mg/kg
[8] = rat plasma, intravenous injection, 144 mg/kg, mean ± standard deviation
[9] = nominal concentration 8000 ng/mL

SMILES | absorption in vivo (in words) ([1]; rat) | elimination rate (in words) ([1]; rat) | CL(/F) (clearance) [1, 4] | Extracted sample stability, Concentration [2, 6] | Extracted sample stability, Accuracy [2, 6] | stability values (short- and long-term stability) [2] | Short-term stability, Concentration [2, 6] | Long-term stability, Accuracy [2, 6] | tmax [1, 7] | AUC0-t [1, 8] | AUC0-∞ [1, 8] | Vss obs (observed volume of distribution at steady state) [1, 4] | Extracted sample stability, Concentration ([2]; nominal concentration 30 ng/mL) | Extracted sample stability, Accuracy ([2]; nominal concentration 30 ng/mL) | Extracted sample stability, Concentration [2, 9] | Extracted sample stability, Accuracy [2, 9] | Short-term stability, Concentration ([2]; nominal concentration 30 ng/mL) | Short-term stability, Concentration [2, 9] | Long-term stability, Accuracy ([2]; nominal concentration 30 ng/mL) | Long-term stability, Accuracy [2, 9] | also measured
O=C(O)[C@H]1/C(=C/CO)O[C@@H]2CC(=O)N21 [Clavulanate] | rapidly absorbed in vivo | shortest t1/2 and most rapid elimination | 5780 ± 3400 mL/min/kg | 2344 ± 98 ng/mL | −2.3% | −4.3% to 3.2 | 2389 ± 118 ng/mL | −1.1% |  |  |  |  |  |  |  |  |  |  |  |  | AUC0-t [1, 3]: 541 ± 254 ng·h/mL; AUC(0-inf) [1, 3]: 559 ± 251 ng·h/mL; Cmax [1, 3]: 1660 ± 667 ng/mL; half-life [1, 3]: 10.2 ± 2.4 min; tmax [1, 3]: 4.98 min; Extracted sample stability, Accuracy ([2]; nominal concentration 80 ng/mL): −2.8%; Extracted sample stability, Concentration [2, 5]: 295 ± 17 ng/mL; Extracted sample stability, Accuracy [2, 5]: −1.7%; Short-term stability, Concentration ([2]; nominal concentration 80 ng/mL): 81.4 ± 0.6 ng/mL; Short-term stability, Concentration [2, 5]: 305 ± 11 ng/mL; Long-term stability, Accuracy ([2]; nominal concentration 80 ng/mL): 3.2%; Long-term stability, Accuracy [2, 5]: −3.7%
CC1(C)S[C@@H]2[C@H](NC(=O)[C@H](C(=O)O)c3ccsc3)C(=O)N2[C@H]1C(=O)O [Ticarcillin R] | rapidly absorbed in vivo | slower | 0.733 ± 0.17 mL/min/kg | 2427 ± 16 ng/mL | 1.1% |  | 2349 ± 15 ng/mL | −0.5% | 4.98 min | 3,654,298 ± 430,890 ng·h/mL | 3,654,643 ± 431,153 ng·h/mL | 0.02 ± 0.00 L/kg | 28.6 ± 0.8 ng/mL | −4.7% | 8291 ± 91 ng/mL | 3.6% | 30.4 ± 0.6 ng/mL | 7918 ± 107 ng/mL | −4.3% | 0.8% | 
CC1(C)S[C@@H]2[C@H](NC(=O)[C@@H](C(=O)O)c3ccsc3)C(=O)N2[C@H]1C(=O)O [Ticarcillin S] | rapidly absorbed in vivo |  | 827.8 ± 63.2 mL/min/kg | 2,465 ± 12 ng/mL | 2.7% |  | 2457 ± 19 ng/mL | 1.3% | 4.98 min | 3270 ± 262 ng·h/mL | 3274 ± 264 ng·h/mL | 12.2 ± 0.68 L/kg | 30.8 ± 1.3 ng/mL | 2.7% | 7985 ± 93 ng/mL | −0.2% | 28.8 ± 0.9 ng/mL | 7931 ± 113 ng/mL | −2.3% | −0.6% | 
CC1(C)S[C@@H]2[C@H](NC(=O)[C@H](C(=O)O)c3ccsc3)C(=O)N2[C@H]1C(=O)O [ticarcillin] |  |  |  |  |  | −4.3% to 3.2 |  |  |  |  |  |  |  |  |  |  |  |  |  |  | 
